Converted amounts (≈) assume the structure as drawn. Where two headings read alike, the source gives them in different places.
Key:
B. fragilis ATCC 25285 = assay: MIC/MBC testing (Example 5); type: cell-based; conditions: Bacteroides fragilis, ATCC25285
E. coli ATCC 25922 = assay: MIC/MBC testing (Example 5); type: cell-based; conditions: Escherichia coli, ATCC25922
Candida parapsilosis [1] = assay: Broth microdilution MIC, yeast and fungi (Example 1); type: cell-based; conditions: Lodderomyces parapsilosis, ATCC22019, Example 1, isolate MMX 2323 (ATCC 22019)
S. pneumoniae ATCC 49619 = assay: MIC/MBC testing (Example 5); type: cell-based
Streptococcus pyogenes = assay: Broth microdilution MIC, aerobic bacteria (Example 1); type: cell-based; conditions: Streptococcus pyogenes, isolate MMX 404, read-out: MIC
Clostridium difficile [2] = assay: Broth microdilution MIC, anaerobic bacteria (Example 4); type: cell-based; conditions: Clostridioides difficile
Aspergillus fumigatus [3] = assay: Broth microdilution MIC, yeast and fungi (Example 1); type: cell-based; conditions: Aspergillus fumigatus, isolate MMX 5280 (ATCC MYA-3626)
Lactobacillus jensenii [4] = assay: Broth microdilution MIC, anaerobic bacteria (Example 4); type: cell-based; conditions: isolate MMX 4149
[5] = tested on: Enterococcus faecalis (VSE); assay: Broth microdilution MIC, aerobic bacteria (Example 1); type: cell-based; conditions: Enterococcus faecalis, ATCC29212, isolate MMX 101 (ATCC 29212), read-out: MIC
Escherichia coli = assay: as above; type: cell-based; conditions: Escherichia coli, ATCC25922, isolate MMX 102 (ATCC 25922), read-out: MIC
[6] = Analysis of intestinal contents, plasma and brains after oral CBD or CBD-glycosides (Example 3); type: in vivo; conditions: mouse, oral gavage; 2 hours; data not shown
Experimental: In order to investigate the metabolism and decoupling of CBD-glycosides in the large intestine, an aqueous solution of a mixture of CBD-glycosides was administered to a mouse by oral gavage. As a control, a solution of CBD in cremophor, ethanol, and saline was administered to a second mouse. The animals were each sacrificed at 2 hours. Following termination and tissue harvest, the intestinal contents were then extracted and analyzed by C18 reverse phase HPLC. The mice employed in this example were eight week old male Swiss mice fasted for 12 hours prior to administration of the solutions.
The resulting extracts were analyzed by LCMS performed using a Shimadzu LC-MS 2010 EV. Electrospray ionization (ESI) was performed in negative mode. The column was a Silia Chrom XDB C18 5 um, 150 A, 4.6×50 mm. The method was 12 min 5 to 95 H2O:ACN. Acetic acid and formic acid were used as sample additives during analysis, and the injection volume was 20 μl.

Pseudomonas aeruginosa [7] = assay: Broth microdilution MIC, aerobic bacteria (Example 1); type: cell-based
[8] = tested on: Staphylococcus aureus (MRSA); assay: microbe, parasite or virus in culture; type: cell-based
Candida parapsilosis [9] = assay: Broth microdilution MIC, fungi (Example 4); type: cell-based; conditions: Lodderomyces parapsilosis
gram-negative aerobes = assay: Broth microdilution MIC, summary (Example 4); type: cell-based; conditions: tested alone
Aspergillus fumigatus [10] = assay: Broth microdilution MIC, fungi (Example 4); type: cell-based; conditions: Aspergillus fumigatus
[11] = tested on: Staphylococcus aureus (MRSA); assay: microbe, parasite or virus in culture; type: cell-based; conditions: Staphylococcus aureus, MRSA
Bacteroides fragilis [12] = assay: Broth microdilution MIC, anaerobic bacteria (Example 1); type: cell-based; conditions: Bacteroides fragilis
Pseudomonas aeruginosa [13] = assay: Broth microdilution MIC, aerobic bacteria (Example 4); type: cell-based
[14] = tested on: Enterococcus faecalis (VSE); assay: as above; type: cell-based; conditions: ATCC29212
strains tested = assay: MIC/MBC testing, summary (Example 5); type: cell-based
Clostridium difficile [15] = assay: Broth microdilution MIC, anaerobic bacteria (Example 1); type: cell-based; conditions: Clostridioides difficile
E. faecalis MMX 848 = assay: MIC/MBC testing (Example 5); type: cell-based
S. aureus MMX 757 = assay: MIC/MBC testing (Example 5); type: cell-based
Lactobacillus jensenii [16] = assay: Broth microdilution MIC, anaerobic bacteria (Example 1); type: cell-based; conditions: Lactobacillus jensenii
B. longum MMX 3968 = assay: MIC/MBC testing (Example 5); type: cell-based
S. aureus ATCC 29213 = assay: MIC/MBC testing (Example 5); type: cell-based
Bacteroides fragilis [17] = assay: Broth microdilution MIC, anaerobic bacteria (Example 4); type: cell-based; conditions: ATCC25285, isolate MMX 123 (ATCC 25285)
Bifidobacterium bifidum = assay: as above; type: cell-based; conditions: isolate MMX 3965
[18] = Streptococcus pneumoniae, ATCC49619
[19] = ratios of 1-4 are indicative of bactericidal activity
[20] = read-out: inhibits the growth (IC50)
[21] = Bifidobacterium longum, MMX3968
[22] = Staphylococcus aureus, ATCC29213

For `C=C(C)[C@@H]1CCC(C)=C[C@H]1c1c(O)cc(CCCCC)cc1O` [CBD, cannabidiol], the MIC (B. fragilis ATCC 25285) was 16 µg/mL (≈ 50.9 µM), the MIC (E. coli ATCC 25922) was greater than 256 µg/mL and the MIC (Candida parapsilosis [1]; 24 hr, read-out: MIC at 24 hr) was greater than 256 µg/mL. The MIC (Candida parapsilosis [1]; 48 hr, read-out: MIC at 48 hr) was greater than 256 µg/mL, the MBC (S. pneumoniae ATCC 49619; [18]) was 4 µg/mL (≈ 12.7 µM) and the MIC (S. pneumoniae ATCC 49619; [18]) was 1 µg/mL (≈ 3.18 µM). For the same compound, the “MBC:MIC” value (S. pneumoniae ATCC 49619; [19]) was 4, the MIC (Streptococcus pyogenes) was 16 µg/mL (≈ 50.9 µM) and the MIC (Clostridium difficile [2]; ATCC700057, Example 4, isolate MMX 4381 (ATCC 700057)) was 64 µg/mL (≈ 204 µM). It also gave an MIC (Clostridium difficile [2]; Example 4, isolate MMX 8330) of 64 µg/mL (≈ 204 µM), an MIC (Clostridium difficile [2]; Example 4, isolate MMX 8333) of 64 µg/mL (≈ 204 µM) and an MIC (Aspergillus fumigatus [3]; 24 hr, read-out: MIC at 24 hr) greater than 256 µg/mL. It also gave an MIC (Aspergillus fumigatus [3]; 48 hr, read-out: MIC at 48 hr) greater than 256 µg/mL, an MIC (Lactobacillus jensenii [4]) greater than 128 µg/mL and an MIC [5] of 2 µg/mL (≈ 6.36 µM). For the same compound, the MIC (Escherichia coli) was greater than 256 µg/mL, the “presence of CBD in plasma and brains (HPLC)” value [6] was “CBD was only present in the control animal that received CBD aglycone” and the “effect on the gram-negative pathogen” value (Pseudomonas aeruginosa [7]; Example 1 summary of findings, Pseudomonas) was “did not have any effect”. It also gave an MIC (Pseudomonas aeruginosa [7]; Pseudomonas aeruginosa, Example 1, isolate MMX 1380, read-out: MIC) greater than 256 µg/mL, an MIC [8] of 2 µg/mL (≈ 6.36 µM) and an MIC (Candida parapsilosis [9]; ATCC22019, 24 h, read-out: MIC at 24 hr) greater than 128 µg/mL. The MIC (Candida parapsilosis [9]; ATCC22019, Example 4, 48 hr, isolate MMX 2323 (ATCC 22019), read-out: MIC at 48 hr) was greater than 128 µg/mL, the “activity against Gram-negative aerobes” value (gram-negative aerobes) was “inactive” and the MIC (Aspergillus fumigatus [10]; 48 h, read-out: MIC at 48 hr) was greater than 128 µg/mL. The MIC (Aspergillus fumigatus [10]; Example 4, 24 hr, isolate MMX 5280 (MYA-3626), read-out: MIC at 24 hr) was greater than 128 µg/mL, the MIC [11] was 2 µg/mL (≈ 6.36 µM) and the IC50 [11, 20] was 2 µg/mL (≈ 6.36 µM). For the same compound, the MIC (Bacteroides fragilis [12]; ATCC5285) was 32 µg/mL (≈ 102 µM), the IC50 (Bacteroides fragilis [12]; Example 1 summary of findings, read-out: inhibits the growth (IC50)) was 32 µg/mL (≈ 102 µM) and the MIC (Pseudomonas aeruginosa [13]) was greater than 128 µg/mL. The MIC [14] was 2 µg/mL (≈ 6.36 µM), the “biocidal activity against the strains tested” value (strains tested) was “overall biocidal” and the MIC (Clostridium difficile [15]; ATCC00057, Example 1, isolate MMX 4381 (ATCC 00057)) was 32 µg/mL (≈ 102 µM). For the same compound, the MIC (Clostridium difficile [15]; Example 1, isolate MMX 8330, read-out: MIC) was 32 µg/mL (≈ 102 µM), the MIC (Clostridium difficile [15]; Example 1, isolate MMX 8333, read-out: MIC) was 32 µg/mL (≈ 102 µM) and the IC50 (Clostridium difficile [15]; [20]) was 32 µg/mL (≈ 102 µM). The MBC (E. faecalis MMX 848; Enterococcus faecalis, MMX848) was 2 µg/mL (≈ 6.36 µM), the MIC (E. faecalis MMX 848; Enterococcus faecalis, MMX848) was 1 µg/mL (≈ 3.18 µM) and the “MBC:MIC” value (E. faecalis MMX 848; [19]) was 2. For the same compound, the MBC (S. aureus MMX 757; Staphylococcus aureus, MMX757) was 1 µg/mL (≈ 3.18 µM), the MIC (S. aureus MMX 757; Staphylococcus aureus, MMX757) was 1 µg/mL (≈ 3.18 µM) and the “MBC:MIC” value (S. aureus MMX 757; [19]) was 1. The MIC (Lactobacillus jensenii [16]; Example 1, isolate MMX 4149, read-out: MIC) was 64 µg/mL (≈ 204 µM), the IC50 (Lactobacillus jensenii [16]; Example 1 summary of findings, read-out: inhibits the growth (IC50 values)) was 64 µg/mL (≈ 204 µM) and the MBC (B. longum MMX 3968; [21]) was 64 µg/mL (≈ 204 µM). For the same compound, the MIC (B. longum MMX 3968; [21]) was 16 µg/mL (≈ 50.9 µM), the “MBC:MIC” value (B. longum MMX 3968; [19]) was 4 and the MBC (S. aureus ATCC 29213; [22]) was 2 µg/mL (≈ 6.36 µM). For the same compound, the MIC (S. aureus ATCC 29213; [22]) was 1 µg/mL (≈ 3.18 µM), the “MBC:MIC” value (S. aureus ATCC 29213; [19]) was 2 and the MIC (Bacteroides fragilis [17]) was greater than 128 µg/mL. For the same compound, the MIC (Bifidobacterium bifidum) was 8 µg/mL (≈ 25.4 µM).

Reference: patent US11207291B2, “Antimicrobial compositions comprising cannabinoids and methods of using the same” (Graphium Biosciences, Inc., priority 2017, dated 2021)
